Laboratory results: ChEMBL document CHEMBL5154674, “ARN25068, a versatile starting point towards triple GSK-3β/FYN/DYRK1A inhibitors to tackle tau-related neurological disorders” (Eur J Med Chem, 2022)

Tested on: U2OS
Assay: Cytotoxic effect on human U2OS cells transfected with Tau0N4R-TM-tGFP at 25 to 100 uM by fluorescence based microscopy
Type: toxicity, cell-based
Settings: dose 25-100 µM

SMILES: c1ccc(CNc2nc(Nc3cc(C4CC4)[nH]n3)c3sccc3n2)cc1
- Activity: Toxic
